Data as given in patent US9346795B2, “Substituted sulfonamides useful as antiapoptotic Bcl inhibitors” (Bristol-Myers Squibb Company, priority 2011, dated 2016).

Legend:
Bcl-xL = Bcl-xL (Homo sapiens (Human), UniProt Q07817); assay: Bcl-xL/Bim Fluorescence Resonance Energy Transfer Assay (FRET); format: binding
Method: Bcl-xL/Bim Fluorescence Resonance Energy Transfer Assay (FRET) The assays were performed in black flat-bottom 384-well plates. The final assay volume was 55 μl prepared from additions of Biotin-Bcl-xL (Bcl-xL: GENBANK® Accession No. […] The reaction was incubated at room temperature for 60 minutes. After 60 minutes, 5 μL of Streptavidin-Terbium FRET detection reagent (Perkin Elmer) was added to the reaction mixture and incubated at room temperature in the dark for 30 mins. […] Compounds were dissolved at 10 mM in dimethylsulfoxide (DMSO) and evaluated at eleven concentrations. IC50 values were derived by non-linear regression analysis.

Bcl-2 = Bcl-2 (Homo sapiens (Human), UniProt P10415); assay: Bcl-2/Bim Fluorescence Polarization Assay (FPA); format: binding
Sequence of Bcl-2 (P10415 whole entry): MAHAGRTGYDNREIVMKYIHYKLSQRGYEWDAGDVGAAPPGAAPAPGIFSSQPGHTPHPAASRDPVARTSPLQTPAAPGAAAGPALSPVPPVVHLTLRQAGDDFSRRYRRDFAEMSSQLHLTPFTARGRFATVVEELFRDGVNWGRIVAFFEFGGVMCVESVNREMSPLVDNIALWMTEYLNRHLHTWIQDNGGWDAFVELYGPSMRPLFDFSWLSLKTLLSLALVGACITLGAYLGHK
Method: Bcl-2/Bim Fluorescence Polarization Assay (FPA)
The assays were performed in black flat-bottom 384-well plates. […] The reaction was incubated at room temperature for 60 minutes and fluorescence polarization of the reaction was detected on the LJL Plate Reader. Inhibition data were calculated from mP values generated by the no protein control reactions for 100% inhibition and vehicle-only reactions for 0% inhibition. The final concentrations of reagents in the assay were 4.9 nM BCL-2, 5 nM fluoresceinated 18-mer BIM peptide and 1% DMSO. […] Compounds were dissolved at 10 mM in dimethylsulfoxide (DMSO) and evaluated at eleven concentrations. IC50 values were derived by non-linear regression analysis.

Sequence of Bcl-xL (Q07817 whole entry): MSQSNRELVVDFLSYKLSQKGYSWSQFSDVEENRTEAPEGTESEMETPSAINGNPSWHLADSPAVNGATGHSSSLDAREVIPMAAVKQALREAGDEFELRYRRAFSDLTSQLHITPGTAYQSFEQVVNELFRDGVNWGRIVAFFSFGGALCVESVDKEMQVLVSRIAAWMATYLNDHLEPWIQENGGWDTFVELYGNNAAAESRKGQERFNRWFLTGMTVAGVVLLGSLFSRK

Row | SMILES | IC50 (Bcl-xL) | IC50 (Bcl-2)
1 | CCCCN(CCCC)C(=O)c1nn(-c2ccc(C(=O)NS(=O)(=O)c3ccc4ccccc4c3)cc2C(=O)N2Cc3ccccc3C[C@H]2CN)c(C)c1Cl [Example 92, 1-(2-((S)-3-(Aminomethyl)-1,2,3,4-tetrahydroisoquinoline-2-carbonyl)-4-(naphthalen-2-ylsulfonylcarbamoyl)phenyl)-N,N-dibutyl-4-chloro-5-methyl-1H-pyrazole-3-carboxamide] | 10 nM | 8.41 nM
2 | CCCCN(CCC(=O)NCCN1CCN(C)CC1)C(=O)c1nn(-c2ccc(C(=O)NS(=O)(=O)c3ccc4c(c3)CCN4Cc3ccc(Cl)c(Cl)c3)cc2C(=O)N2CCc3ccccc3C2)c(C)c1Cl [Example 200, N-butyl-4-chloro-1-(4-(1-(3,4-dichlorobenzyl)indolin-5-ylsulfonylcarbamoyl)-2-(1,2,3,4-tetrahydroisoquinoline-2-carbonyl)phenyl)-5-methyl-N-(3-(2-(4-methylpiperazin-1-yl)ethylamino)-3-oxopropyl)-1H-pyrazole-3-carboxamide] | 130 nM | 1010 nM
3 | CCCCN(CCCC)C(=O)c1nn(-c2ccc(C(=O)NS(=O)(=O)c3ccc4ccccc4c3)cc2C(=O)N2COc3ccccc3C2)c(C)c1Cl [Example 96, N,N-Dibutyl-4-chloro-1-(2-(3,4-dihydro-2H-benzo[e][1,3]oxazine-3-carbonyl)-4-(naphthalen-2-ylsulfonylcarbamoyl)phenyl)-5-methyl-1H-pyrazole-3-carboxamide] | 60 nM | 120 nM
4 | CCCCN(CCCC)C(=O)c1cccc(-c2ccc(C(=O)NS(=O)(=O)c3ccc4ccccc4c3)cc2C(=O)N2CCc3ccccc3C2)n1 [Example 286, N,N-Dibutyl-6-(4-(naphthalen-2-ylsulfonylcarbamoyl)-2-(1,2,3,4-tetrahydroisoquinoline-2-carbonyl)phenyl)picolinamide] | 70 nM | 600 nM
5 | CCCCN(CCC(=O)NCCN1CCN(C)CC1)C(=O)c1nn(-c2ccc(C(=O)NS(=O)(=O)c3ccc4ccccc4c3)cc2C(=O)N2CCc3ccccc3C2)c(C)c1Cl [Example 158, N-Butyl-4-chloro-5-methyl-N-(3-(2-(4-methylpiperazin-1-yl)ethylamino)-3-oxopropyl)-1-(4-(naphthalen-2-ylsulfonylcarbamoyl)-2-(1,2,3,4-tetrahydroisoquinoline-2-carbonyl)phenyl)-1H-pyrazole-3-carboxamide] | 20 nM | 70 nM
6 | CCCCc1c(-c2ccc(C(=O)NS(=O)(=O)c3ccc4ccccc4c3)cc2C(=O)N2CCc3ccccc3C2)c(C(=O)OCC)nn1-c1ccc(Oc2ccccc2)cc1 [Example 228, Ethyl 5-butyl-4-(4-(naphthalen-2-ylsulfonylcarbamoyl)-2-(1,2,3,4-tetrahydroisoquinoline-2-carbonyl)phenyl)-1-(4-phenoxyphenyl)-1H-pyrazole-3-carboxylate] | 60 nM | 100 nM
7 | CCCCN(CCCC)C(=O)c1nn(-c2ccc(C(=O)NS(=O)(=O)c3ccc4ccc(OCCCN5CCOCC5)cc4c3)cc2C(=O)N2CCc3ccccc3C2)c(C)c1Cl [Example 34, N,N-dibutyl-4-chloro-5-methyl-1-(4-(7-(3-morpholinopropoxy)naphthalen-2-ylsulfonylcarbamoyl)-2-(1,2,3,4-tetrahydroisoquinoline-2-carbonyl)phenyl)-1H-pyrazole-3-carboxamide] | 40 nM | 290 nM
8 | CCCCN(CCCC)C(=O)c1nn(-c2ccc(C(=O)NS(=O)(=O)c3ccc4ccc(OCCCN5CCN(C)CC5)cc4c3)cc2C(=O)N2CCc3ccccc3C2)c(C)c1Cl [Example 35, N,N-dibutyl-4-chloro-5-methyl-1-(4-(7-(3-(4-methylpiperazin-1-yl)propoxy)naphthalen-2-ylsulfonylcarbamoyl)-2-(1,2,3,4-tetrahydroisoquinoline-2-carbonyl)phenyl)-1H-pyrazole-3-carboxamide] | 40 nM | 510 nM
9 | CCCCN(CCCC)C(=O)c1nn(-c2ccc(C(=O)NS(=O)(=O)c3ccc4ccccc4c3)cc2C(=O)N2Cc3ccccc3C[C@@H]2C(=O)O)c(C)c1Cl [Example 93, (3R)-2-(2-(4-Chloro-3-(dibutylcarbamoyl)-5-methyl-1H-pyrazol-1-yl)-5-(naphthalen-2-ylsulfonylcarbamoyl)benzoyl)-1,2,3,4-tetrahydroisoquinoline-3-carboxylic acid] | 200 nM | 1650 nM
10 | CCCCN(C(=O)c1nn(-c2ccc(C(=O)NS(=O)(=O)c3ccc4ccccc4c3)cc2C(=O)N2CCc3ccccc3C2)c(C)c1Cl)c1ccc2c(c1)OCCO2 [Example 149, N-butyl-4-chloro-N-(2,3-dihydrobenzo[b][1,4]dioxin-6-yl)-5-methyl-1-(4-(naphthalen-2-ylsulfonylcarbamoyl)-2-(1,2,3,4-tetrahydroisoquinoline-2-carbonyl)phenyl)-1H-pyrazole-3-carboxamide] | 30 nM | 70 nM
11 | CCCCN(C(=O)c1nn(-c2ccc(C(=O)NS(=O)(=O)c3ccc4c(Cl)ccc(Cl)c4c3)cc2C(=O)N2CCc3ccccc3C2)c(C)c1Cl)c1cccc(-c2cccc(Cl)c2)c1 [Example 222, N-butyl-4-chloro-N-(3′-chlorobiphenyl-3-yl)-1-(4-(5,8-dichloronaphthalen-2-ylsulfonylcarbamoyl)-2-(1,2,3,4-tetrahydroisoquinoline-2-carbonyl)phenyl)-5-methyl-1H-pyrazole-3-carboxamide] | 40 nM | 70 nM
12 | CCCCN(CCCC)C(=O)c1nn(-c2ccc(C(=O)NS(=O)(=O)c3ccc4cccc(Cl)c4c3)cc2C(=O)N2CCc3ccccc3C2)c(C)c1Cl [Example 5, N,N-dibutyl-4-chloro-1-(4-(8-chloronaphthalen-2-ylsulfonylcarbamoyl)-2-(1,2,3,4-tetrahydroisoquinoline-2-carbonyl)phenyl)-5-methyl-1H-pyrazole-3-carboxamide] | 70 nM | 30 nM
13 | CCCCN(CCCC)C(=O)c1nn(-c2ccc(C(=O)NS(=O)(=O)c3cc(Br)c4c(c3)CCN4CC)cc2C(=O)N2Cc3ccccc3C[C@H]2CO)c(C)c1Cl [Example 205, 1-(4-(7-bromo-1-ethylindolin-5-ylsulfonylcarbamoyl)-2-((S)-3-(hydroxymethyl)-1,2,3,4-tetrahydroisoquinoline-2-carbonyl)phenyl)-N,N-dibutyl-4-chloro-5-methyl-1H-pyrazole-3-carboxamide] | 8.85 nM | 9.15 nM
14 | CCCCN(CCCC)C(=O)c1nn(-c2ccc(C(=O)NS(=O)(=O)c3ccc4ccc(OCCCN(C)C)cc4c3)cc2C(=O)N2CCc3ccccc3C2)c(C)c1Cl [Example 39, N,N-dibutyl-4-chloro-1-(4-(7-(3-(dimethylamino)propoxy)-naphthalen-2-ylsulfonylcarbamoyl)-2-(1,2,3,4-tetrahydroisoquinoline-2-carbonyl)phenyl)-5-methyl-1H-pyrazole-3-carboxamide] | 20 nM | 1460 nM
15 | CCCCN(CCCC)C(=O)c1nn(-c2ccc(C(=O)NS(=O)(=O)c3ccc4c(ccn4CCCN4CCOCC4)c3)cc2C(=O)N2CCc3ccccc3C2)c(C)c1Cl [Example 82, N,N-dibutyl-4-chloro-5-methyl-1-(4-(1-(3-morpholinopropyl)-1H-indol-5-ylsulfonylcarbamoyl)-2-(1,2,3,4-tetrahydroisoquinoline-2-carbonyl)phenyl)-1H-pyrazole-3-carboxamide] | 30 nM | 390 nM
16 | CCCCc1c(-c2ccc(C(=O)NS(=O)(=O)c3ccc4ccccc4c3)cc2C(=O)N2CCc3ccccc3C2)c(CO)nn1-c1ccc(OCC(O)CO)cc1 (racemic) [Example 258, (±)-4-(5-Butyl-1-(4-(2,3-dihydroxypropoxy)phenyl)-3-(hydroxymethyl)-1H-pyrazol-4-yl)-N-(naphthalen-2-ylsulfonyl)-3-(1,2,3,4-tetrahydroisoquinoline-2-carbonyl)benzamide] | – | 8.13 nM
17 | CCCCN(CCCC)C(=O)c1nn(-c2ccc(C(=O)NS(=O)(=O)c3ccc4ccccc4c3)cc2C(=O)N2Cc3ccccc3C[C@H]2CO)c(C)c1Cl [Example 91, N,N-Dibutyl-4-chloro-1-(2-((S)-3-(hydroxymethyl)-1,2,3,4-tetrahydroisoquinoline-2-carbonyl)-4-(naphthalen-2-ylsulfonylcarbamoyl)phenyl)-5-methyl-1H-pyrazole-3-carboxamide] | – | 50 nM
18 | CCCCN(CCCC)C(=O)c1nn(-c2ccc(C(=O)NS(=O)(=O)c3ccc4ccc(I)cc4c3)cc2C(=O)N2CCc3ccccc3C2)c(C)c1Cl [Example 11, N,N-dibutyl-4-chloro-1-(4-(7-iodonaphthalen-2-ylsulfonylcarbamoyl)-2-(1,2,3,4-tetrahydroisoquinoline-2-carbonyl)phenyl)-5-methyl-1H-pyrazole-3-carboxamide] | 50 nM | –
19 | CCCCN(CCCC)C(=O)c1nn(-c2ccc(C(=O)NS(=O)(=O)c3ccc4ccccc4c3)cc2C(=O)N2Cc3ccccc3C[C@H]2CNC2CCN(C)CC2)c(C)c1Cl [Example 106, N,N-Dibutyl-4-chloro-5-methyl-1-(2-((S)-3-((1-methylpiperidin-4-ylamino)methyl)-1,2,3,4-tetrahydroisoquinoline-2-carbonyl)-4-(naphthalen-2-ylsulfonylcarbamoyl)phenyl)-1H-pyrazole-3-carboxamide] | – | 20 nM
